Results taken from patent US20260217708A1, “FUSED BENZAZEPINE DERIVATIVES FOR USE IN THE TREATMENT OF CANCER AND EPILEPSY” (UCB BIOPHARMA SRL, priority 2023, published 2026).

Tests used:
system Xc^− [1] = target: T1, system Xc^− (Homo sapiens, UniProt Q9UPY5); assay: [^14C]L-Cystine uptake assay; type: cell-based; parameters: endogenous in cells; host or cells: H4 cells; details: H4 cells, sodium-free HEPES buffer, 0.5 μM L-[14C]Cystine and 4.5 μM L-Cystine, 1 hour at 37° C.; read-out: pIC50 [^14C] L-Cystine uptake assay (converted)
T1 sequence (Q9UPY5 1-501): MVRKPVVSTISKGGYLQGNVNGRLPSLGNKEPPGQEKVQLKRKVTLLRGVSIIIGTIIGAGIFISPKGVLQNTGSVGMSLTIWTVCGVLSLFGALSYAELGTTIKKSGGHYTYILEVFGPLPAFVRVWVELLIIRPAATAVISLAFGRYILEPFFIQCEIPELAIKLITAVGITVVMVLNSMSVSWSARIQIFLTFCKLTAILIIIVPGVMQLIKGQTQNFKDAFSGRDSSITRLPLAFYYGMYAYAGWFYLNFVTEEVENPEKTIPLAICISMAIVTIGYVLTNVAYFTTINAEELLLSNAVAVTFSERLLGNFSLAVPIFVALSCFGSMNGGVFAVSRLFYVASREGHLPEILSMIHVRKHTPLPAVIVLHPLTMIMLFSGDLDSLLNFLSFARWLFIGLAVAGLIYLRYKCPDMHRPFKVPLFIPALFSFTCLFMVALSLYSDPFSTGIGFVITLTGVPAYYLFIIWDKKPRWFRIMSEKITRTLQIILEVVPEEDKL
T1 sequence (P08195 1-529 partner): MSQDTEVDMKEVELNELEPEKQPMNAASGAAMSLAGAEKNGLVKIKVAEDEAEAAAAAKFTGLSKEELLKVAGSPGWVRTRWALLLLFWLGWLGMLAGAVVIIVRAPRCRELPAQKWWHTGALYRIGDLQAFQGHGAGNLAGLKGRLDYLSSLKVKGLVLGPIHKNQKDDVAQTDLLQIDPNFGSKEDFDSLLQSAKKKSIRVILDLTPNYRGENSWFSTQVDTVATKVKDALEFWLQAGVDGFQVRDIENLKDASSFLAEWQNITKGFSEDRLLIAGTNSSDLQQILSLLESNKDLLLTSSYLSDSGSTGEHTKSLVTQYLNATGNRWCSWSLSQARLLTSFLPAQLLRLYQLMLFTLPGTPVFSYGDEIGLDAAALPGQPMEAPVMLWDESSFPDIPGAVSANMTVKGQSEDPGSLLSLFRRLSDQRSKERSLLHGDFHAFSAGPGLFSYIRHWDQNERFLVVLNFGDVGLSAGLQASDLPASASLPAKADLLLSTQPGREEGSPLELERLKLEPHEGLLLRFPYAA
Procedure, shortened: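 H4 cells at 5×10^4 cells/well in sodium-free HEPES buffer were preincubated 15 min with compounds (1% DMSO). Uptake of 0.5 μM [14C]L-cystine plus 4.5 μM unlabelled L-cystine ran 1 hour at 37° C on scintillating plates. IC50 was set between 1% DMSO and 50 μM Erastin controls and expressed as pIC50.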

system Xc^− [2] = target: T1, system Xc^−; assay: Cystine-induced glutamate release assay; type: cell-based; parameters: endogenous in cells; host or cells: H4 cells; details: H4 cells, sodium-free HEPES buffer, 50 μM L-Cystine, 2 hours, Amplex Red glutamate readout; read-out: pIC50 Cystine-induced glutamate release assay (converted)
Procedure, shortened: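 H4 cells in sodium-free HEPES buffer (pH 7.4), 2 days after plating; glutamate release induced with 50 μM L-cystine plus compound (1% DMSO), 2 h at 37 °C. Supernatant glutamate measured by Amplex Red fluorescence; IC50/pIC50 derived between 1% DMSO and 50 μM erastin controls.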

Row | IC50 (system Xc^− [1]) [nM] | IC50 (system Xc^− [2]) [nM] | SMILES
1 | 100 to 501 | 39.8 to 100 | COc1ncc2c(c1C)-c1cccnc1CC(=O)N2CC(=O)Nc1ccc(C(F)(F)F)cc1 [#67, 2-(4-methoxy-3-meth-yl-9-oxo-5,8,12-triaza-tricyclo[9.4.0.0^2,7]pentadeca-1(11),2(7), 3,5,12,14-hexaen-8-yl)-N-[4-(trifluoromethyl)-phenyl]acetamide]
2 | 39.8 to 100 | 39.8 to 100 | N#Cc1c(F)ccc2c1-c1cccnc1CC(=O)N2CC(=O)Nc1ccc(C(F)(F)F)cc1 [#68, 2-(11-cyano-10-fluoro-6-oxo-5H-pyrido[2,3-d][1]benzazepin-7-yl)-N-[4-(trifluoromethyl)-phenyl]acetamide]
3 | 15.8 to 39.8 | 39.8 to 100 | N#Cc1cc2c(cc1F)-c1cccnc1CC(=O)N2CC(=O)Nc1ccc(C(F)(F)F)cc1 [#69, 2-(9-cyano-10-fluoro-6-oxo-5H-pyrido[2,3-d][1]benzazepin-7-yl)-N-[4-(trifluoromethyl)-phenyl]acetamide]
4 | 100 to 501 | 100 to 501 | Cc1cc2c(cn1)-c1ccc(C)nc1CC(=O)N2CC(=O)Nc1ccc(C(F)(F)F)cc1 [#71, 2-(5,13-dimethyl-9-oxo-4,8,12-triazatricyclo[9.4.0.0^2,7]pentadeca-1(11),2(7),3,5,12,14-hexaen-8-yl)-N-[4-(trifluoromethyl)phenyl]acetamide]
5 | 15.8 to 39.8 | 39.8 to 100 | CCc1nc(C)cc2c1-c1ccccc1CC(=O)N2CC(=O)Nc1ccc(C(F)(F)F)cc1 [#72, 2-(1-ethyl-3-methyl-6-oxo-7H-pyrido[4,3-d][3]benzazepin-5-yl)-N-[4-(trifluoromethyl)phenyl]acetamide]
6 | 100 to 501 | 100 to 501 | Cc1cc2c(c(C3CC3)n1)-c1ccccc1CC(=O)N2CC(=O)Nc1ccc(C(F)(F)F)cc1 [#73, 2-(1-cyclopropyl-3-methyl-6-oxo-7H-pyrido[4,3-d][3]benzazepin-5-yl)-N-[4-(trifluoromethyl)phenyl]acetamide]
7 | 100 to 501 | 100 to 501 | COc1nc(C)cc2c1-c1cnnn1CC(=O)N2CC(=O)Nc1ccc(C(F)(F)F)cc1 [#74, 2-(14-methoxy-12-methyl-8-oxo-4,5,6,9,13-pentazatricyclo[8.4.0.0^2,6]tetradeca-1(1),2,4,11,13-pentaen-9-yl)-N-[4-(trifluoromethyl)phenyl]acetamide]
8 | 15.8 to 39.8 | 15.8 to 39.8 | COc1nc(C)cc2c1-c1cccnc1CC(=O)N2CC(=O)Nc1ccc(C(F)(F)F)cc1 [#75, 2-(3-methoxy-5-methyl-9-oxo-4,8,12-triazatricyclo[9.4.0.0^2,7]pentadeca-1(11),2,4,6,12,14-hexaen-8-yl)-N-[4-(trifluoromethyl)phenyl]acetamide]
9 | 100 to 501 | 100 to 501 | Cc1cc2c(c(O)n1)-c1cccnc1CC(=O)N2CC(=O)Nc1ccc(C(F)(F)F)cc1 [#76, 2-(3-hydroxy-5-methyl-9-oxo-4,8,12-triazatricyclo[9.4.0.0^2,7]pentadeca-1(11),2(7),3,5,12,14-hexaen-8-yl)-N-[4-(trifluoromethyl)phenyl]acetamide]
10 | 100 to 501 | 39.8 to 100 | COc1nc(C)cc2c1-c1cccnc1CC(=O)N2CC(=O)Nc1ccc(C#N)cc1 [#77, N-(4-cyanophenyl)-2-(3-methoxy-5-methyl-9-oxo-4,8,12-triazatricyclo [9.4.0.0^2,7]pentadeca-1(11),2,4,6,12,14-hexaen-8-yl)acetamide]
11 | 100 to 501 | 100 to 501 | O=C(CN1C(=O)Cc2ncccc2-c2c(F)cncc21)Nc1ccc(C(F)(F)F)cc1 [#78, 2-(3-fluoro-9-oxo-5,8,12-triazatricyclo[9.4.0.0^2,7]pentadeca-1(11),2(7),3,5,12,14-hexaen-8-yl)-N-[4-(trifluoromethyl)-phenyl]acetamide]
12 | 100 to 501 | 100 to 501 | COc1nc(C)cc2c1-c1cccnc1CC(=O)N2CC(=O)Nc1ccc(C(F)(F)F)nc1 [#79, 2-(3-methoxy-5-methyl-9-oxo-4,8,12-triazatri-cyclo[9.4.0.0^2,7]penta-deca-1(11),2,4,6,12,14-hexaen-8-yl)-N-[6-(tri-fluoromethyl)-3-pyridyl] acetamide]
13 | 15.8 to 39.8 | 15.8 to 39.8 | COc1nc(C)cc2c1-c1cccnc1CC(=O)N2CC(=O)Nc1ccc(C2CC2)cc1 [#80, N-(4-cyclopropylphen-yl)-2-(3-methoxy-5-methyl-9-oxo-4,8,12-triazatricyclo[9.4.0.0^2.7]pentadeca-1(11),2(7),3,5,12,14-hexaen-8-yl)-acetamide]
14 | < 15.8 | 15.8 to 39.8 | COc1nc(C)cc2c1-c1cccnc1C(C)C(=O)N2CC(=O)Nc1ccc(C(F)(F)F)cc1 (centres unmarked) [#81, 2-(3-methoxy-5,10-dimethyl-9-oxo-4,8,12-triazatricyclo[9.4.0.0^2,7]pentadeca-1(11),2,4,6, 12,14-hexaen-8-yl)-N-[4-(trifluoromethyl)-phenyl]acetamide]
15 | 39.8 to 100 | 100 to 501 | CCOc1nc(C)cc2c1-c1cccnc1CC(=O)N2CC(=O)Nc1ccc(C(F)(F)F)cc1 [#82, 2-(3-ethoxy-5-methyl-9-oxo-4,8,12-triazatri-cyclo[9.4.0.0^2,7]penta-deca-1(15),2(7),3,5,11, 13-hexaen-8-yl)-N-[4-(trifluoromethyl)phenyl] acetamide]
16 | < 15.8 | < 15.8 | COc1nc(C)cc2c1-c1cccnc1CC(=O)N2CC(=O)Nc1ccc(C(F)F)cc1 [#83, N-[4-(difluoromethyl)-phenyl]-2-(3-methoxy-5-methyl-9-oxo-4,8,12-triazatricyclo[9.4.0.0^2,7]pentadeca-1(11),2,4,6, 12,14-hexaen-8-yl)acet-amide]
17 | < 15.8 | 15.8 to 39.8 | Cc1cc2c(c(F)n1)-c1cccnc1C(C)C(=O)N2CC(=O)Nc1ccc(C(F)(F)F)cc1 (centres unmarked) [#84, 2-(3-fluoro-5,10-dimethyl-9-oxo-4,8,12-triazatricyclo[9.4.0.0^2,7]pentadeca-1(11),2(7),3,5,12,14-hexaen-8-yl)-N-[4-(trifluoromethyl)phenyl]acetamide]
18 | 100 to 501 | 39.8 to 100 | Cc1cc2c(c(F)n1)-c1ccc(Cl)cc1CC(=O)N2CC(=O)Nc1ccc(C(F)(F)F)cc1 [#85, 2-(9-chloro-1-fluoro-3-methyl-6-oxo-7H-pyrido[4,3-d][3]benzazepin-5-yl)-N-[4-(trifluoromethyl)phenyl]acetamide]
19 | 15.8 to 39.8 | 39.8 to 100 | Cc1cc2c(c(F)n1)-c1ccc(F)cc1CC(=O)N2CC(=O)Nc1ccc(C(F)(F)F)cc1 [#86, 2-(1,9-difluoro-3-methyl-6-oxo-7H-pyrido[4,3-d][3]benzazepin-5-yl)-N-[4-(trifluoromethyl)phenyl]acetamide]
20 | 39.8 to 100 | 100 to 501 | Cc1cc2c(c(F)n1)-c1c(F)cccc1CC(=O)N2CC(=O)Nc1ccc(C(F)(F)F)cc1 [#87, 2-(1,11-difluoro-3-methyl-6-oxo-7H-pyrido[4,3-d][3]benzazepin-5-yl)-N-[4-(trifluoromethyl)phenyl]acetamide]
21 | 39.8 to 100 | 39.8 to 100 | Cc1cc2c(c(F)n1)-c1cccc(C#N)c1CC(=O)N2CC(=O)Nc1ccc(C(F)(F)F)cc1 [#88, 2-(8-cyano-1-fluoro-3-methyl-6-oxo-7H-pyrido[4,3-d][3]benzazepin-5-yl)-N-[4-(trifluoromethyl)phenyl]acetamide]
22 | 100 to 501 | 39.8 to 100 | Cc1cc2c(c(F)n1)-c1cccnc1C(C)(F)C(=O)N2CC(=O)Nc1ccc(C(F)(F)F)cc1 (centres unmarked) [#89, 2-(3,10-difluoro-5,10-dimethyl-9-oxo-4,8,12-triazatricyclo[9.4.0.0^2,7]pentadeca-1(11),2(7),3,5,12,14-hexaen-8-yl)-N-[4-(trifluoromethyl)phenyl]acetamide]
